# Data as given in PubChem BioAssay AID1918949 (Molecular Pharmacology Branch, DTP, NCI, 2023).
# Tested on: K24384-001-R-PDC complex spheroid viability
# Assay: Anticancer human tumor K24384-001-R-PDC patient-derived pancreatic adenocarcinoma cell line growth inhibition
# Settings: for IC50: curve of first compound; for viability, T/C: stronger effect = lower value
# Method in brief: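 Drug combinations with the LSD1 inhibitor iadademstat tested on tumor cells co-cultured as spheroids with endothelial cells and mesenchymal stem cells. Concentrations descended in half-log increments from clinical Cmax or 10 microM.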
# [1] = second compound 0.1 µM, first compound 0.0316 µM
# [2] = second compound 0.1 µM, first compound 0.1 µM
# [3] = second compound 0.1 µM, first compound 0.316 µM
# [4] = second compound 0.1 µM, first compound 1 µM
# [5] = second compound 0.1 µM, first compound 3.16 µM
# [6] = second compound 0.1 µM, first compound 10 µM
# [7] = second compound 0.316 µM, first compound 0.0316 µM
# [8] = second compound 0.316 µM, first compound 0.1 µM
# [9] = second compound 0.316 µM, first compound 0.316 µM
# [10] = second compound 0.316 µM, first compound 1 µM
# [11] = second compound 0.316 µM, first compound 3.16 µM
# [12] = second compound 0.316 µM, first compound 10 µM
# [13] = second compound 1 µM, first compound 0.0316 µM
# [14] = second compound 1 µM, first compound 0.1 µM
# [15] = second compound 1 µM, first compound 0.316 µM
# [16] = second compound 1 µM, first compound 1 µM
# [17] = second compound 1 µM, first compound 3.16 µM
# [18] = second compound 1 µM, first compound 10 µM
# [19] = second compound 3.16 µM, first compound 0.0316 µM
# [20] = second compound 3.16 µM, first compound 0.1 µM
# [21] = second compound 3.16 µM, first compound 0.316 µM
# [22] = second compound 3.16 µM, first compound 1 µM
# [23] = second compound 3.16 µM, first compound 3.16 µM
# [24] = second compound 3.16 µM, first compound 10 µM
# [25] = second compound 10 µM, first compound 0.0316 µM
# [26] = second compound 10 µM, first compound 0.1 µM
# [27] = second compound 10 µM, first compound 0.316 µM
# [28] = second compound 10 µM, first compound 1 µM
# [29] = second compound 10 µM, first compound 3.16 µM
# [30] = second compound 10 µM, first compound 10 µM
# [31] = second compound 0.1 µM, first compound 0.00949 µM
# [32] = second compound 0.1 µM, first compound 0.03 µM
# [33] = second compound 0.1 µM, first compound 0.0949 µM
# [34] = second compound 0.1 µM, first compound 0.3 µM
# [35] = second compound 0.1 µM, first compound 0.949 µM
# [36] = second compound 0.1 µM, first compound 3 µM
# [37] = second compound 0.316 µM, first compound 0.00949 µM
# [38] = second compound 0.316 µM, first compound 0.03 µM
# [39] = second compound 0.316 µM, first compound 0.0949 µM
# [40] = second compound 0.316 µM, first compound 0.3 µM
# [41] = second compound 0.316 µM, first compound 0.949 µM
# [42] = second compound 0.316 µM, first compound 3 µM
# [43] = second compound 1 µM, first compound 0.00949 µM
# [44] = second compound 1 µM, first compound 0.03 µM
# [45] = second compound 1 µM, first compound 0.0949 µM
# [46] = second compound 1 µM, first compound 0.3 µM
# [47] = second compound 1 µM, first compound 0.949 µM
# [48] = second compound 1 µM, first compound 3 µM
# [49] = second compound 3.16 µM, first compound 0.00949 µM
# [50] = second compound 3.16 µM, first compound 0.03 µM
# [51] = second compound 3.16 µM, first compound 0.0949 µM
# [52] = second compound 3.16 µM, first compound 0.3 µM
# [53] = second compound 3.16 µM, first compound 0.949 µM
# [54] = second compound 3.16 µM, first compound 3 µM
# [55] = second compound 10 µM, first compound 0.00949 µM
# [56] = second compound 10 µM, first compound 0.03 µM
# [57] = second compound 10 µM, first compound 0.0949 µM
# [58] = second compound 10 µM, first compound 0.3 µM
# [59] = second compound 10 µM, first compound 0.949 µM
# [60] = second compound 10 µM, first compound 3 µM
# 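Note: spheroids exposed to agents for seven days before luminescence viability reading.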
# 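Throughout, for viability, T/C: 100% = DMSO vehicle control viability.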
smiles,measurement,setting,value
CC1(C)CCC(CN2CCN(c3ccc(C(=O)NS(=O)(=O)c4ccc(NCC5CCOCC5)c([N+](=O)[O-])c4)c(Oc4cnc5[nH]ccc5c4)c3)CC2)=C(c2ccc(Cl)cc2)C1 + NC1CC1c1ccc(-c2cccc(O)c2)cc1,IC50,second compound 0.1 µM,3350 nM
same,IC50,second compound 0.316 µM,2600 nM
same,IC50,second compound 1 µM,2680 nM
same,IC50,second compound 3.16 µM,2690 nM
same,IC50,second compound 10 µM,1950 nM
same,"viability, T/C",[1],90.7%
same,"viability, T/C",[2],83.9%
same,"viability, T/C",[3],88.3%
same,"viability, T/C",[4],87.6%
same,"viability, T/C",[5],52.6%
same,"viability, T/C",[6],0.98%
same,"viability, T/C",[7],82.7%
same,"viability, T/C",[8],76.7%
same,"viability, T/C",[9],90%
same,"viability, T/C",[10],80.4%
same,"viability, T/C",[11],43.7%
same,"viability, T/C",[12],1.07%
same,"viability, T/C",[13],91.5%
same,"viability, T/C",[14],63.7%
same,"viability, T/C",[15],63.8%
same,"viability, T/C",[16],83.3%
same,"viability, T/C",[17],45.7%
same,"viability, T/C",[18],0.94%
same,"viability, T/C",[19],83.3%
same,"viability, T/C",[20],93.2%
same,"viability, T/C",[21],78.8%
same,"viability, T/C",[22],71%
same,"viability, T/C",[23],46.9%
same,"viability, T/C",[24],0.99%
same,"viability, T/C",[25],86.3%
same,"viability, T/C",[26],81.5%
same,"viability, T/C",[27],67.9%
same,"viability, T/C",[28],62.4%
same,"viability, T/C",[29],44.4%
same,"viability, T/C",[30],1%
COc1cc(C2c3cc4c(cc3C(OC3OC5COC(C)OC5C(O)C3O)C3COC(=O)C23)OCO4)cc(OC)c1O (stereo not given) + NC1CCC(NC2CC2c2ccccc2)CC1,IC50,second compound 0.1 µM,1330 nM
same,IC50,second compound 0.316 µM,1860 nM
same,IC50,second compound 1 µM,2650 nM
same,IC50,second compound 3.16 µM,> 3000 nM
same,IC50,second compound 10 µM,2620 nM
same,"viability, T/C",[31],91.2%
same,"viability, T/C",[32],92.8%
same,"viability, T/C",[33],86.4%
same,"viability, T/C",[34],65.3%
same,"viability, T/C",[35],55.9%
same,"viability, T/C",[36],42.8%
same,"viability, T/C",[37],107%
same,"viability, T/C",[38],83.3%
same,"viability, T/C",[39],79.7%
same,"viability, T/C",[40],75.7%
same,"viability, T/C",[41],57.2%
same,"viability, T/C",[42],43.2%
same,"viability, T/C",[43],98.4%
same,"viability, T/C",[44],97.2%
same,"viability, T/C",[45],69.3%
same,"viability, T/C",[46],72.6%
same,"viability, T/C",[47],59.6%
same,"viability, T/C",[48],47.8%
same,"viability, T/C",[49],87.8%
same,"viability, T/C",[50],102%
same,"viability, T/C",[51],67.9%
same,"viability, T/C",[52],65%
same,"viability, T/C",[53],57.9%
same,"viability, T/C",[54],54%
same,"viability, T/C",[55],88.2%
same,"viability, T/C",[56],98.4%
same,"viability, T/C",[57],90.1%
same,"viability, T/C",[58],73.2%
same,"viability, T/C",[59],66%
same,"viability, T/C",[60],47.4%
O=C(C=Cn1cnc(-c2cc(C(F)(F)F)cc(C(F)(F)F)c2)n1)NNc1cnccn1 + NC1CC1c1ccc(-c2cccc(O)c2)cc1,IC50,second compound 0.1 µM,27.7 nM
same,IC50,second compound 0.316 µM,23.7 nM
same,IC50,second compound 1 µM,22.4 nM
same,IC50,second compound 3.16 µM,21.2 nM
same,IC50,second compound 10 µM,27.8 nM
same,"viability, T/C","second compound 0.1 µM, first compound 0.00316 µM",68.8%
same,"viability, T/C","second compound 0.1 µM, first compound 0.01 µM",72.3%
same,"viability, T/C",[1],46.5%
same,"viability, T/C",[2],28.7%
same,"viability, T/C",[3],24.7%
same,"viability, T/C",[4],20.6%
same,"viability, T/C","second compound 0.316 µM, first compound 0.00316 µM",68.2%
same,"viability, T/C","second compound 0.316 µM, first compound 0.01 µM",72.8%
same,"viability, T/C",[7],42.7%
same,"viability, T/C",[8],30.2%
same,"viability, T/C",[9],21.6%
same,"viability, T/C",[10],20.3%
same,"viability, T/C","second compound 1 µM, first compound 0.00316 µM",67.1%
same,"viability, T/C","second compound 1 µM, first compound 0.01 µM",77%
same,"viability, T/C",[13],40.6%
same,"viability, T/C",[14],27.3%
same,"viability, T/C",[15],22.7%
same,"viability, T/C",[16],19%
same,"viability, T/C","second compound 3.16 µM, first compound 0.00316 µM",80.9%
same,"viability, T/C","second compound 3.16 µM, first compound 0.01 µM",65.4%
same,"viability, T/C",[19],42%
same,"viability, T/C",[20],26%
same,"viability, T/C",[21],21.7%
same,"viability, T/C",[22],19.5%
same,"viability, T/C","second compound 10 µM, first compound 0.00316 µM",80.6%
same,"viability, T/C","second compound 10 µM, first compound 0.01 µM",81.9%
same,"viability, T/C",[25],46%
same,"viability, T/C",[26],30.7%
same,"viability, T/C",[27],26.7%
same,"viability, T/C",[28],24.5%
O=C(c1cc(Cc2n[nH]c(=O)c3ccccc23)ccc1F)N1CCN(C(=O)C2CC2)CC1 + NC1CC1c1ccc(-c2cccc(O)c2)cc1,IC50,second compound 0.1 µM,> 10000 nM
same,IC50,second compound 0.316 µM,> 10000 nM
same,IC50,second compound 1 µM,> 10000 nM
same,IC50,second compound 3.16 µM,> 10000 nM
same,IC50,second compound 10 µM,> 10000 nM
same,"viability, T/C",[1],96.3%
same,"viability, T/C",[2],73.9%
same,"viability, T/C",[3],84.4%
same,"viability, T/C",[4],65.8%
same,"viability, T/C",[5],56.2%
same,"viability, T/C",[6],67.4%
same,"viability, T/C",[7],89.8%
same,"viability, T/C",[8],80.5%
same,"viability, T/C",[9],79.5%
same,"viability, T/C",[10],77%
same,"viability, T/C",[11],57.6%
same,"viability, T/C",[12],66.1%
same,"viability, T/C",[13],78.7%
same,"viability, T/C",[14],73.5%
same,"viability, T/C",[15],72.6%
same,"viability, T/C",[16],81%
same,"viability, T/C",[17],66.6%
same,"viability, T/C",[18],70.8%
same,"viability, T/C",[19],78.7%
same,"viability, T/C",[20],77.3%
same,"viability, T/C",[21],83.8%
same,"viability, T/C",[22],72.2%
same,"viability, T/C",[23],68%
same,"viability, T/C",[24],59.8%
same,"viability, T/C",[25],86.6%
same,"viability, T/C",[26],81.5%
same,"viability, T/C",[27],76.5%
same,"viability, T/C",[28],87.4%
same,"viability, T/C",[29],54.5%
same,"viability, T/C",[30],62.3%
CCN(c1cc(-c2ccc(CN3CCOCC3)cc2)cc(C(=O)NCc2c(C)cc(C)[nH]c2=O)c1C)C1CCOCC1 + NC1CCC(NC2CC2c2ccccc2)CC1,IC50,second compound 0.1 µM,> 3000 nM
same,IC50,second compound 0.316 µM,> 3000 nM
same,IC50,second compound 1 µM,> 3000 nM
same,IC50,second compound 3.16 µM,> 3000 nM
same,IC50,second compound 10 µM,> 3000 nM
same,"viability, T/C",[31],96%
same,"viability, T/C",[32],80.3%
same,"viability, T/C",[33],80.6%
same,"viability, T/C",[34],107%
same,"viability, T/C",[35],86.5%
same,"viability, T/C",[36],57.5%
same,"viability, T/C",[37],96.7%
same,"viability, T/C",[38],92.1%
same,"viability, T/C",[39],94.7%
same,"viability, T/C",[40],92.1%
same,"viability, T/C",[41],93.7%
same,"viability, T/C",[42],71.1%
same,"viability, T/C",[43],98.4%
same,"viability, T/C",[44],84.3%
same,"viability, T/C",[45],103%
same,"viability, T/C",[46],83.7%
same,"viability, T/C",[47],82.2%
same,"viability, T/C",[48],62.9%
same,"viability, T/C",[49],81.3%
same,"viability, T/C",[50],104%
same,"viability, T/C",[51],91.6%
same,"viability, T/C",[52],79.1%
same,"viability, T/C",[53],73%
same,"viability, T/C",[54],70.2%
same,"viability, T/C",[55],80.3%
same,"viability, T/C",[56],82.7%
same,"viability, T/C",[57],98.8%
same,"viability, T/C",[58],73.7%
same,"viability, T/C",[59],79.1%
same,"viability, T/C",[60],70.5%
